The text below walks through data of patent US20220273568A1, “MULT[…] FORMULATIONS OF DEXMEDETOMIDINE” (Pacira Pharmaceuticals, Inc., priority 2019, published 2022).

Each structure is given as a SMILES string.

The conditions of data set [1]: rat, in vivo, sc.
Procedure: (§1) Pharmacokinetic studies of the subcutaneous dosing of the DXM PK studies discussed herein were performed in rats where bolus DXM was compared to various formulations of DXM-MVLs at doses between 0.21-0.42 mg/kg. Female Sprague Dawley rats supplied by Absorption Systems weighing about 310 g received subcutaneous injections of either a bolus of unencapsulate (free or unencapsulated) DXM dissolved in H3PO4 solution or one the of the DXM-MVL formulations suspended in saline or buffered saline (20 mM phosphate). Injections were made on the left lateral hind limb of each rat using 100 μL syringes fitted with 25G needles. Each treatment group contained 3 rats.
(§2) Plasma samples were collected at different times points (0.5, 1, 2, 6, 12, 24, 48, 72 & 96 hour post dose) for analysis. Blood samples were collected via the right saphenous vein using a 19 gauge needle prick or cardiac puncture for the final time point, placed into chilled tubes containing the appropriate anticoagulant, inverted several times to mix, protected from light, and kept on ice until centrifugation.
The nature of the next data set: in vivo. The note with it: female, Sprague Dawley, rat, sc.
For data set [2] the following is noted: background statement; cited from earlier work.

Broadly, the Tmax is the time at which the peak concentration occurs. What is called half-life is how long it takes for the measured level to halve. Read a high half-life as slow loss.

Procedure for in vivo: as §1, §2

Turning to `Cc1cccc([C@H](C)c2cnc[nH]2)c1C` [Unencapsulated DXM solution, dexmedetomidine], the AUC/Dose in data set [1] (female, Sprague Dawley) came to 383 pg·h/mL/mg/kg. In addition, in data set [1], the Cmax/Cavg is given as 2.3 and the “time at which plasma DXM levels peaked” value was “within an hour”. Besides, in the data set “in vivo”, the Tmax was 0.5 h and the half-life was 2 h. Moreover, the t1/2 in data set [2] is given as 2 h.
